In patent US20220401514A1, “ANTIMICROBIAL, BACTERIOPHAGE-DERIVED POLYPEPTIDES AND THEIR USE AGAINST GRAM-NEGATIVE AND ACID-FAST BACTERIA” (CONTRAFECT CORPORATION, priority 2019, published 2022):
Read-outs that look alike come from different tables or passages of the source.

Experiments:
[1] = system: M. smegmatis; experiment: 45 hr MIC against M. smegmatis (NTM), Mueller Hinton broth; assay type: cell-based, Mycobacterium smegmatis
[2] = system: Acinetobacter baumannii; experiment: microbe, parasite or virus in culture; assay type: cell-based; details: for MIC50 / MIC100 / MIC Range: A. baumannii isolates (n per peptide in table); for MIC: Acinetobacter baumannii ATCC BAA 747, CAA supplemented with human serum
[3] = system: Klebsiella pneumoniae; assay type: cell-based; details: for MIC50 / MIC100 / MIC Range: K. pneumoniae isolates (n per peptide in table); for MIC: Klebsiella pneumoniae HM-44, CAA supplemented with human serum
Procedure: (§1) Determination of Minimal Inhibitory Concentrations (MIC).
(§2) Additional MIC testing was performed for several peptides against the ESKAPE pathogens Escherichia coli, Enterobacter cloacae, Klebsiella pneumoniae, and Acinetobacter baumannii, in CAA supplemented with human serum (Table D).

[4] = system: M. avium; experiment: 45 hr MIC against M. avium (NTM); assay type: cell-based, Mycobacterium avium; details: M. avium Chester ATCC 700898
[5] = system: Pseudomonas aeruginosa; experiment: microbe, parasite or virus in culture; assay type: cell-based; details: P. aeruginosa isolates (n per peptide in table)
[6] = system: M. scrofulaceum; experiment: 45 hr MIC against M. scrofulaceum (NTM); assay type: cell-based, Mycobacterium scrofulaceum; details: M. scrofulaceum Prissick and Masson ATCC 19981
[7] = system: M. fortuitum; experiment: 45 hr MIC against M. fortuitum (NTM); assay type: cell-based, Mycobacterium fortuitum; details: M. fortuitum subsp. Fortuitum da Costa Cruz. ATCC 6841
[8] = system: Mycobacterium tuberculosis strains
Procedure: MIC values for various Chp peptides were determined using the CLSI method for broth microdilution in 96-well microtiter format.
Next, MIC values for various Chp peptides were determined using the CLSI method above for broth microdilution in 96-well microtiter format for two different Mycobacterium tuberculosis strains. The MIC was determined as explained above for the NTM strains.

[9] = system: M. kansasii Hauduroy ATCC 12478; experiment: 45 hr MIC against M. kansasii (NTM), Mueller Hinton broth; assay type: cell-based, Mycobacterium kansasii
[10] = system: S. maltophilia; experiment: MIC against S. maltophilia isolates; assay type: cell-based, Stenotrophomonas maltophilia; details: S. maltophilia isolates (n per peptide in table)
Procedure: as §1
In addition to the results discussed above in Example 3, further testing was conducted on several Chp peptides. MIC values were determined against different species, including P. aeruginosa, K. pneumoniae, A. baumannii, E. cloacae, E. coli, and S. maltophilia, and the results are presented below in Tables 40-45, wherein n=number of isolates tested for each species and MIC is measured as μg/mL.

[11] = system: M. intracellulare; experiment: 45 hr MIC against M. intracellulare (NTM); assay type: cell-based, Mycobacterium intracellulare; details: M. intracellulare (Cuttino and McCabe) Runyon ATCC 13950
[12] = Stability assessment in 100% CAA; assay type: in vitro ADME; set-up: unit not given beside the values
Procedure: Stability was assessed after incubation in 100% human serum at 37° C. after 10 minutes, 1 hour, and 2 hours.
Stability assessment was further conducted in 100% CAA and rabbit serum using the same methodology discussed above.

[13] = system: carbapenem-resistant P. aeruginosa clinical isolate CFS-1292; experiment: MIC by modified CLSI broth microdilution against P. aeruginosa CFS-1292 (CAA, CAA + human serum); assay type: cell-based, Pseudomonas aeruginosa; details: for MIC (μg/mL) against CFS-1292 in 100% CAA (1st run/2nd run): 1st run or single value
[14] = system: carbapenem-resistant bacterial strains; experiment: organism not typed; assay type: cell-based
Description: as §1

[15] = system: Enterobacter cloacae; experiment: microbe, parasite or virus in culture; assay type: cell-based; details: for MIC: Enterobacter cloacae ATCC 13047, CAA supplemented with human serum
Procedure: as §1, §2

[16] = system: Escherichia coli; experiment: microbe, parasite or virus in culture; assay type: cell-based; details: for MIC: Escherichia coli ATCC 25922, CAA supplemented with human serum
Procedure: as §1, §2

[17] = Mycobacterium tuberculosis (Zopf) Lehmann and Neumann ATCC 25177
[18] = Mycobacterium tuberculosis (Zopf) Lehmann and Neumann ATCC 35817
[19] = carbapenem-resistant isolate PA19
[20] = carbapenem-resistant isolate PA20
[21] = carbapenem-resistant isolate PA21
[22] = carbapenem-resistant isolate PA22
[23] = carbapenem-resistant isolate PA23
[24] = carbapenem-resistant isolate PA24
[25] = carbapenem-resistant isolate WLC-452
[26] = E. cloacae isolates (n per peptide in table)
[27] = E. coli isolates (n per peptide in table)

Row | Sequence | 45 hr MIC ([1]; M. smegmatis MC^2 155, Run #1) [µg/mL] | 45 hr MIC ([1]; M. smegmatis MC^2 155, Run #2) [µg/mL] | MIC50 [2] [µg/mL] | MIC100 [2] [µg/mL] | MIC Range [2] [µg/mL] | MIC50 [3] [µg/mL] | MIC100 [3] [µg/mL] | 45 hr MIC [4] [µg/mL] | MIC50 [5] [µg/mL] | MIC100 [5] [µg/mL] | 45 hr MIC [6] [µg/mL] | 45 hr MIC [7] [µg/mL] | MIC [8, 17] [µg/mL] | MIC [8, 18] [µg/mL] | 45 hr MIC [9] [µg/mL] | MIC50 [10] [µg/mL] | 45 hr MIC [11] [µg/mL] | MIC (100% CAA) [12] | MIC (μg/mL) against CFS-1292 in 100% CAA (1st run/2nd run) [13] [µg/mL] | MIC (μg/mL) against CFS-1292 in CAA + […] human serum [13] [µg/mL] | further results
1 | MAKKIRNKARDRRIFTRTASRMHKANRTPRFMRGGIRL [ALCES1] | 1 | 2 | 2 | 2 | 1 to 2 | >8 | >8 | 8 | >8 | >8 | 2 | 4 | 32 | 8 | 2 | 4 | 2 | – | – | – | MIC100 [10]: 8 µg/mL
2 | MAYRGFKTSRVVKHRVRRRWFNHRRRYR [Spi1] | 2 | 16 | 1 | 1 | 1 | 2 | 4 | >64 | 4 | 8 | 2 | 8 | 32 | 16 | 0.5 | 2 | 4 | 1 | 2 | 0.25 | MIC Range [3]: 2 to 4 µg/mL; MIC [14, 19]: 2 µg/mL; MIC [14, 20]: 4 µg/mL; MIC [14, 21]: 8 µg/mL; MIC [14, 22]: 4 µg/mL; MIC [14, 23]: 8 µg/mL; MIC [14, 24]: 4 µg/mL; MIC [14, 25]: 2 µg/mL; MIC Range [5]: 2 to 8 µg/mL; MIC100 [10]: 2 µg/mL
3 | MIVRRHKMSRRRSRKLFSKTASRTRSKNLRSRPMRGGYRI [Unp4] | – | 16 | – | – | – | – | – | 1 | – | – | 4 | 4 | 32 | 16 | 4 | – | 4 | – | 2 | >16 | –
4 | MKMRKRTDKRVFTRTAAKSKKVNIAPKIFRGGIRL [Unp1] | 4 | 2 | – | – | – | – | – | 1 | – | – | 8 | 8 | – | – | 8 | – | 32 | 4 | 4 | 4 | MIC [15]: >32 µg/mL; MIC [16]: 0.5 µg/mL; MIC [2]: 8 µg/mL; MIC [3]: 8 µg/mL
5 | MRPVKRSRVNKARSAGKFRKQVGKTKMANLRSNPMRGGWRL [HH3930] | 4 | 16 | – | – | – | – | – | 4 | – | – | 16 | 8 | – | – | 32 | – | 16 | 2 | 2 | 4 | –
6 | MRRKKMSRGKSKKLFRRTAKRVHRKNLRARPMRGGIRM [AVQ206] | 4 | 16 | – | – | – | – | – | 1 | – | – | 4 | 2 | – | – | 2 | – | 4 | <0.25 | 0.5 | 0.25 | –
7 | MRRKVKNTKRHQWRLTHSARSIKRANIMPSNPRGGRRF [Spi2] | 4 | 4 | 2 | 2 | 2 to 8 | >8 | >8 | >64 | >8 | >8 | 8 | 4 | 8 | 8 | 1 | >8 | >64 | 4 | 16 | 0.25 | MIC50 [15, 26]: >8 µg/mL; MIC100 [15, 26]: >8 µg/mL; MIC [15]: 4 µg/mL; MIC50 [16, 27]: 4 µg/mL; MIC100 [16, 27]: >8 µg/mL; MIC [16]: 0.25 µg/mL; MIC [2]: 16 µg/mL; MIC Range [3]: >8 µg/mL; MIC [3]: 16 µg/mL; MIC [14, 19]: >8 µg/mL; MIC [14, 20]: >8 µg/mL; MIC [14, 21]: >8 µg/mL; MIC [14, 22]: >8 µg/mL; MIC [14, 23]: >8 µg/mL; MIC [14, 24]: >8 µg/mL; MIC [14, 25]: >8 µg/mL; MIC Range [5]: >8 µg/mL; MIC100 [10]: >8 µg/mL; MIC Range [10]: >8 µg/mL
8 | MRRYNVNKGKSAKKFRKQVSKTKVANLRSNPMRGGWRL [AGT915] | 4 | 1 | – | – | – | – | – | >64 | – | – | >64 | 1 | – | – | 1 | – | >64 | 2 | 2 | 0.25 | –
